Measured values published in patent US20230405002A1, “COMBINATIONS OF DIACYLGLYCEROL ACYLTRANSFERASE 2 INHIBITORS AND ACETYL-COA CARBOXYLASE INHIBITOR” (Pfizer Inc., priority 2020, published 2023).
Converted amounts (≈) assume the structure as drawn.

Columns and labels:
[1] = Thermodynamic solubility in various media; format: physicochemical
Protocol: The solubility of active pharmaceutical ingredients is an important characteristic in determining biological performance and ease of formulation during drug development, with high solubility being preferred (Klein, S. 2010, The AAPS Journal, 12, 397-406; Di, L., et al 2012, Drug Disc. Today, 17. 486-495). A test sample of crystalline solid (˜7 mg) was combined in a vial with 1 mL of the relevant buffer solution and the mixture vortexed to combine. If the solid dissolved completely, additional solid was added with vortexing until a saturated solution was obtained. The saturated solution/solid mixture was capped and subjected to temperature cycling as follows: 1 min at 25° C.; 8 h at 40° C.; 5 h at 15° C. and 12 h at 25° C. The mixture was filtered in a centrifugal filtration device (0.22 μm PVDF filter, MilliporeSigma, Milwaukee, WI) at 13,000 rpm and the concentration of the test compound in the filtrate was determined by HPLC/UPLC with reference to a three point standard curve. Phosphate buffered saline (PBS, pH 6.8, 50 mM phosphate buffer, 250 mM NaCl). Simulated gastric fluid (SGN pH 1.2, USP recipe). […]

[2] = target: human DGAT2 (hDGAT2) (Homo sapiens (Human), UniProt Q96PD7); assay: In vitro DGAT2 assay, determination of IC50 values; format: biochemical; details: geometric mean; hDGAT2 membrane fraction
human DGAT2 (hDGAT2), sequence (Q96PD7 whole entry): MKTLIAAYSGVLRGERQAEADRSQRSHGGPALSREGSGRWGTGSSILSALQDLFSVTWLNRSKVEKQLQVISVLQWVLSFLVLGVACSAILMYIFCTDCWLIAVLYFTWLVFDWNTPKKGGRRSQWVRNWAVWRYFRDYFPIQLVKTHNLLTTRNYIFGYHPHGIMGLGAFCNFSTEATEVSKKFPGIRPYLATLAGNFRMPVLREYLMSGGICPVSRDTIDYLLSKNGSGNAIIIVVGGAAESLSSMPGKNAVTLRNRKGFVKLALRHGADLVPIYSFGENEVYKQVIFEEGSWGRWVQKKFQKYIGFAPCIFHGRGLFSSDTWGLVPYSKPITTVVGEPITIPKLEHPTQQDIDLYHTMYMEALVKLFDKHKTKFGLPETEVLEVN

[3] = test system: Western diet fed Sprague-Dawley rats; assay: In vivo effects of DGAT2 inhibitors on plasma and hepatic triglyceride levels (rat western diet model); details: oral 3, 10, 30, 100 mg/kg BID 7 days; dose dependent; vs western diet vehicle
Excerpt: The rat western diet model was utilized to assess the effects of DGAT2 inhibitor treatment on plasma triglyceride production and hepatic triglyceride content in vivo. Male Sprague-Dawley rats were housed under standard laboratory conditions on a 12-hour light, 12-hour dark cycle (lights on at 06:00). Two weeks prior to study start animals were placed on a high-fat, high sucrose, high-cholesterol diet (D12079b, provided by Research Diets, New Brunswick, NJ). This diet provides ˜43% of kilocalories from carbohydrate and ˜41% of kilocalories from fat. Example 4 was administered orally as a solution (10 mL/kg dosing volume) in 0.5% methylcellulose in deionized water, pH 7.0-7.5 (methylcellulose was obtained from Sigma-Aldrich, St. Louis, MO). […] Plasma TG levels were determined using a Roche Hitachi Chemistry analyzer according to the manufacturer's instructions (Roche Diagnostics Corporation, Indianapolis, IN) and data was analyzed using GraphPad Prism (GraphPad Software, Inc., La Jolla, CA). […] The triglyceride assay was performed through absorbance and reported as milligrams per deciliter. […]
FIG. 29 plots the multiple dose effects of Example 4 on Plasma Triglyceride in Western Diet Fed Sprague-Dawley Rats where plasma triglyceride levels were determined from blood drawn from the lateral tail vein 2-hours following the final dose of Example 4. […]

[4] = target: DGAT2 in human hepatocytes (Homo sapiens (Human), UniProt Q96PD7); assay: Determination of IC50 values for DGAT2 inhibitors in human hepatocytes; format: cell-based; details: geometric mean; cryopreserved human hepatocytes, DGAT1 inhibitor 3 μM present
DGAT2 in human hepatocytes, sequence (Q96PD7 whole entry): as above
Protocol: For evaluation of the effects of DGAT2 inhibitors in a cell-based setting, cryopreserved human hepatocytes (Lot DOO, Celsis, Baltimore, MD) were thawed and plated onto type I collagen-coated plates according to the manufacturer's instructions. After 18 hours overnight recovery period, the cells were overlayed with media containing 250 μg/mL Geltrex Basement Membrane Matrix (Thermo Fisher). The following day, media was aspirated and replaced with serum-free Williams Media E (Thermo Fisher) containing 400 μM sodium dodecanoate (Sigma-Aldrich, St. Louis, MO) and 2 mM GlutaMAX (Thermo Fisher). […] DGAT2 inhibitors were then added to the desired final concentration. After a 15 minute preincubation, 0.2 μCi [^14C(U)]-glycerol (Perkin Elmer) was added to each well followed by a 3 hour incubation. At this point the media was removed, and the cells lysed via orbital shaking in isopropyl alcohol: tetrahydrofuran (9:1) for 15 minutes prior to centrifugation at 3000 rpm for 10 minutes. Radiolabeled lipids were resolved using a solvent system by thin layer chromatography with the solvent consisting of hexanes: diethyl ether: glacial acetic acid (75:23:2, v/v/v). After separation, radiolabeled lipids were visualized using the Typhoon 9500 phosphorimaging system (GE). The half maximal inhibitory concentrations (IC50 values) were determined by nonlinear regression analysis of the % inhibition dose response curve using GraphPad Prism (GraphPad Software, Inc., La Jolla, CA).
Table 12 below provides the IC50 values of selected Examples for inhibition of DGAT2 in human hepatocytes in accordance with the above-described assay. Results are reported as geometric mean IC50 values, with the number of replicates (n) shown.

- solubility at 25 h ([1]; FaSSIF (as printed, 25 °C, thermodynamic from solid), FaSSIF pH 6.8 (second line so printed; method also names FeSSIF)): 1210 µg/mL (≈ 2760 µM)
- solubility at 25 h ([1]; fasted state simulated intestinal fluid (FaSSIF), 25 °C, thermodynamic from solid, FaSSIF pH 6.8 (first line)): 700 µg/mL (≈ 1600 µM)
- IC50 [2]: 0.01 µM
- IC50 [4]: 0.011 µM
Compound: CCOc1cccnc1Oc1cncc(-c2ncc(C(=O)N[C@@H]3CNC[C@@H](F)C3)cn2)c1 [Example 4, 2-{5-[(3-Ethoxypyridin-2-yl)oxy]pyridin-3-yl}-N-[(3S,5S)-5-fluoropiperidin-3-yl]pyrimidine-5-carboxamide]
- reduction in liver triglycerides [3]: up to 48%
- reduction in plasma triglycerides [3]: ≤ 70%
